T/C data for 24 compounds are collected here from PubChem BioAssay AID192 (DTP/NCI, 2004).

Values joined by “and” are separate entries in the source; they are usually repeats but may differ in a detail not shown here. Equal values may be shown once. Inconclusive results and toxic doses are left out.

In the experiment the test system is BDF1 mice, B16 melanoma ip, median survival T/C. The experiment can be described thus: NCI In Vivo Anticancer Drug Screen. Data for tumor model B16 Melanoma (intraperitoneal) in B6D2F1 (BDF1) mice. The conditions noted are these: endpoint: median survival time, higher = longer survival. How it is done:
The antitumor activity of compounds was measured in mice bearing transplantable tumors. Survival or tumor size were measured and the results are expressed as the measurement made in the treated group (T) divided by the measurement made in the vehicle treated control group (C). The tumor model used in this assay is B16 Melanoma (intraperitoneal) in B6D2F1 (BDF1) mice

The mark [1] stands for this setting: dose: 12.5 mg/kg/injection, schedule: Q01DX009 (ip), vehicle: saline with Tween-80.
Where [2] appears, read: dose: 25.0 mg/kg/injection, schedule: Q01DX009 (ip), vehicle: saline with Tween-80.
Setting [3] is: dose: 50.0 mg/kg/injection, schedule: Q01DX009 (ip), vehicle: saline with Tween-80.
Where [4] appears, read: dose: 100.0 mg/kg/injection, schedule: Q01DX009 (ip), vehicle: saline with Tween-80.
Setting [5] is: dose: 12.5 mg/kg/injection, schedule: Q01DX009 (ip), vehicle: Klucel (hydroxypropylcellulose) (HPC).
The mark [6] stands for this setting: dose: 6.25 mg/kg/injection, schedule: Q01DX009 (ip), vehicle: saline.
Setting [7] is: dose: 12.5 mg/kg/injection, schedule: Q01DX009 (ip), vehicle: saline.
Setting [8] is: dose: 200.0 mg/kg/injection, schedule: Q01DX009 (ip), vehicle: saline with Tween-80.
Where [9] appears, read: dose: 50.0 mg/kg/injection, schedule: Q01DX009 (ip), vehicle: Klucel (hydroxypropylcellulose) (HPC).
The mark [10] stands for this setting: dose: 100.0 mg/kg/injection, schedule: Q01DX009 (ip), vehicle: Klucel (hydroxypropylcellulose) (HPC).
[11] abbreviates: dose: 200.0 mg/kg/injection, schedule: Q01DX009 (ip), vehicle: Klucel (hydroxypropylcellulose) (HPC).
[12] abbreviates: dose: 400.0 mg/kg/injection, schedule: Q01DX009 (ip), vehicle: Klucel (hydroxypropylcellulose) (HPC).
The mark [13] stands for this setting: dose: 25.0 mg/kg/injection, schedule: Q01DX009 (ip), vehicle: saline.
The mark [14] stands for this setting: dose: 50.0 mg/kg/injection, schedule: Q01DX009 (ip), vehicle: saline.
Setting [15] is: dose: 100.0 mg/kg/injection, schedule: Q01DX009 (ip), vehicle: saline.

In the case of `CC(C)[C@]12O[C@H]1[C@@H]1O[C@]13[C@]1(O[C@H]1C[C@H]1C4=C(C(=O)OC4)[C@@H](O)C[C@@]13C)[C@@H]2O`, the T/C runs as follows: (dose: 12.5 micrograms/kg/injection, schedule: Q01DX009 (ip), vehicle: saline + alcohol) 112 % of control; (dose: 25.0 micrograms/kg/injection, schedule: Q01DX009 (ip), vehicle: saline + alcohol) 110 % of control; (dose: 50.0 micrograms/kg/injection, schedule: Q01DX009 (ip), vehicle: saline + alcohol) 110 % of control; (dose: 63.0 micrograms/kg/injection, schedule: Q01DX009 (ip), vehicle: saline + alcohol) 102 % of control; (dose: 100.0 micrograms/kg/injection, schedule: Q01DX009 (ip), vehicle: saline + alcohol) 122 % of control; (dose: 125.0 micrograms/kg/injection, schedule: Q01DX009 (ip), vehicle: saline + alcohol) 111 % of control. The T/C (dose: 250.0 micrograms/kg/injection, schedule: Q01DX009 (ip), vehicle: saline + alcohol) was 107 % of control.

In the case of `CCCCCCC(=O)/C=C/c1cccc(OCOCC)c1`, the T/C is 99 % of control under setting [1], 94 % of control under setting [2], 102 % of control under setting [3] and 98 % of control under setting [4].

For `O=NN(CCCl)C(=O)NCC1CCC(CNC(=O)N(CCCl)N=O)CC1` (stereo not given), the T/C was 122 % of control (dose: 17.0 mg/kg/injection, schedule: Q01DX009 (ip), vehicle: saline); 152 % of control (dose: 33.0 mg/kg/injection, schedule: Q01DX009 (ip), vehicle: saline); 184 % of control (dose: 65.0 mg/kg/injection, schedule: Q01DX009 (ip), vehicle: saline); 193 % of control (dose: 130.0 mg/kg/injection, schedule: Q01DX009 (ip), vehicle: saline).

Turning to `CC(C)Cc1ccc(OC(=O)Nc2ccc(Cl)cc2)cc1`, the T/C runs as follows: (dose: 6.25 mg/kg/injection, schedule: Q01DX009 (ip), vehicle: saline with Tween-80) 97 % of control; under setting [1], 100 % of control; under setting [2], 91 % of control and 98 % of control.

Consider `C[CH2][Pb]([CH2]C)([CH2]C)[O]C(=O)c1ccc(N)cc1`, for which the T/C reads like this: (dose: 0.75 mg/kg/injection, schedule: Q01DX009 (ip), vehicle: Klucel (hydroxypropylcellulose) (HPC)) 111 % of control; (dose: 1.5 mg/kg/injection, schedule: Q01DX009 (ip), vehicle: Klucel (hydroxypropylcellulose) (HPC)) 111 % of control; (dose: 3.0 mg/kg/injection, schedule: Q01DX009 (ip), vehicle: Klucel (hydroxypropylcellulose) (HPC)) 108 % of control; (dose: 6.0 mg/kg/injection, schedule: Q01DX009 (ip), vehicle: Klucel (hydroxypropylcellulose) (HPC)) 111 % of control; (dose: 12.0 mg/kg/injection, schedule: Q01DX009 (ip), vehicle: Klucel (hydroxypropylcellulose) (HPC)) 105 % of control.

As to `CC1CC(C)OS(=O)O1` (stereo not given), the T/C is 108 % of control (dose: 12.5 mg/kg/injection, schedule: Q01DX009 (ip), vehicle: saline sonified); 100 % of control (dose: 25.0 mg/kg/injection, schedule: Q01DX009 (ip), vehicle: saline sonified); 100 % of control (dose: 50.0 mg/kg/injection, schedule: Q01DX009 (ip), vehicle: saline sonified).

In the case of `S=C=NCC(Br)CBr` (stereo not given), the T/C by setting is: (dose: 6.25 mg/kg/injection, schedule: Q01DX009 (ip), vehicle: Klucel (hydroxypropylcellulose) (HPC)) 86 % of control; under setting [5], 86 % of control.

Regarding `[Cl][Pt+2][Cl].[NH-]CCO.[NH-]CCO`, the T/C was 100 % of control (dose: 3.13 mg/kg/injection, schedule: Q01DX009 (ip), vehicle: saline); 104 % of control under setting [6]; 104 % of control under setting [7].

In the case of `CC12COC(=O)CC1CCC1C2CCC2(C)C1CCC2(C)O` (stereo not given), the T/C under setting [3] is 94 % of control, the T/C under setting [4] is 94 % of control and the T/C under setting [8] was 88 % of control.

Turning to `CC(=O)OCC1OC(S[As](C)C)C(OC(C)=O)C(OC(C)=O)C1OC(C)=O` (stereo not given), the T/C under setting [9] was 107 % of control and the T/C under setting [10] was 96 % of control.

On to `NCCCNCCCCNC(=O)C(O)NC(=O)CCCCCCN=C(N)N` (stereo not given), for which the T/C is, setting by setting: (dose: 6.0 mg/kg/injection, schedule: Q01DX009 (ip), vehicle: saline) 96 % of control; (dose: 12.0 mg/kg/injection, schedule: Q01DX009 (ip), vehicle: saline) 96 % of control; (dose: 24.0 mg/kg/injection, schedule: Q01DX009 (ip), vehicle: saline) 93 % of control; (dose: 48.0 mg/kg/injection, schedule: Q01DX009 (ip), vehicle: saline) 100 % of control.

Regarding `O=C(Nc1cccc(Cl)c1)Nc1cc(Cl)ccc1Cl`, the T/C under setting [4] is 100 % of control; the T/C under setting [8] is 89 % of control; the T/C (dose: 400.0 mg/kg/injection, schedule: Q01DX009 (ip), vehicle: saline with Tween-80) is 86 % of control.

For `CSc1nc2ccccc2s1`, the T/C runs as follows: under setting [9], 106 % of control; under setting [10], 115 % of control.

As to `COc1cccc(CNc2ccc(C)cc2C)c1OC`, the T/C was 96 % of control under setting [10], 103 % of control under setting [11] and 96 % of control under setting [12].

For the compound `CCCCCCCCCCCC(c1ccccc1)[N+](C)(C)Cc1ccccc1` (stereo not given), the T/C by setting is: (dose: 0.25 mg/kg/injection, schedule: Q01DX009 (ip), vehicle: saline sonified) 94 % of control; (dose: 0.5 mg/kg/injection, schedule: Q01DX009 (ip), vehicle: saline sonified) 110 % of control; (dose: 1.0 mg/kg/injection, schedule: Q01DX009 (ip), vehicle: saline sonified) 105 % of control; (dose: 2.0 mg/kg/injection, schedule: Q01DX009 (ip), vehicle: saline sonified) 102 % of control.

Consider `C[N+]1(C)CCCC1`, for which the T/C was 111 % of control under setting [6]; 95 % of control (dose: 6.25 mg/kg/injection, schedule: Q04DX003 (ip), vehicle: saline); 100 % of control under setting [7]; 95 % of control (dose: 12.5 mg/kg/injection, schedule: Q04DX003 (ip), vehicle: saline); 91 % of control under setting [13]; 95 % of control (dose: 25.0 mg/kg/injection, schedule: Q04DX003 (ip), vehicle: saline).

Turning to `NC(=O)CCCN1CCCC1=O`, the T/C is, setting by setting: (dose: 100.0 mg/kg/injection, schedule: Q04DX003 (ip), vehicle: saline) 106 % of control; (dose: 200.0 mg/kg/injection, schedule: Q04DX003 (ip), vehicle: saline) 109 % of control; (dose: 400.0 mg/kg/injection, schedule: Q04DX003 (ip), vehicle: saline) 106 % of control.

For `[I][Ga]([I])[I]`, the T/C is, setting by setting: under setting [7], 87 % of control; under setting [13], 102 % of control.

For the compound `CCOc1ccc(/C=N/NS(=O)(=O)c2ccc(C)cc2)cc1`, the T/C is, setting by setting: under setting [10], 96 % of control; under setting [11], 90 % of control; under setting [12], 90 % of control.

For `CC(=O)CC(=O)N1CCCC(C)C1` (stereo not given), the T/C under setting [10] is 116 % of control, the T/C under setting [11] is 109 % of control and the T/C under setting [12] was 110 % of control.

Turning to `COc1cc2c(cc1Oc1c(Oc3c(O)c(OC)cc4c3C(CC(C)C)N(C)CC4)c(OC)cc3c1C(CC(C)C)N(C)CC3)C(CC(C)C)N(C)CC2` (stereo not given), the T/C is 100 % of control under setting [5]; 96 % of control (dose: 25.0 mg/kg/injection, schedule: Q01DX009 (ip), vehicle: Klucel (hydroxypropylcellulose) (HPC)); 110 % of control under setting [9].

As to `CCC1(C(C)Br)OC2=C(CC(C#N)(C#N)C(C#N)(C#N)C2)O1` (stereo not given), under “dose: 75.0 mg/kg/injection, schedule: Q04DX003 (ip), vehicle: Klucel (hydroxypropylcellulose) (HPC)”, the T/C is 87 % of control.

In the case of `CCOC(=O)CC(SP(=S)(OC)OC)C(=O)OCC` (stereo not given), the T/C was 94 % of control and 107 % of control under setting [2]; 106 % of control under setting [13]; 96 % of control and 97 % of control under setting [3]; 95 % of control under setting [14]; 91 % of control and 98 % of control under setting [4]; 101 % of control under setting [15]. Moreover, the T/C by setting is: under setting [8], 88 % of control and 96 % of control; (dose: 200.0 mg/kg/injection, schedule: Q01DX009 (ip), vehicle: saline) 101 % of control.

For `O=c1[nH]c(=O)c2nc(-c3cccnc3)cnc2[nH]1`, the T/C runs as follows: under setting [7], 104 % of control; under setting [13], 93 % of control; under setting [14], 97 % of control; under setting [15], 89 % of control.
